# Read-outs that look alike come from different tables or passages of the source.
# How the values were obtained:
# [1] = test system: Clostridium difficile (C. diff) toxins A and B; assay: Detection of C. difficile toxins A and B in human faecal samples by ELISA (EXTEND samples); format: in vivo
# Method: The detection of Clostridium difficile (C. diff) toxins A and B in human faecal samples was performed by ELISA. The samples to be analysed originated from clinical study 2819-MA-1002 (EXTEND).
# The samples were sent to LGC (Analytical lab in Fordham, Cambridgeshire, UK) packed in dry ice and upon receipt stored in a freezer (nominally −80° C.). For each patient a stool sample was collected at Day 0 (screening) and also in case of disease recurrence or an unscheduled visit. For subjects participating in the Microbiome sub-study stool samples were collected at: Day 0 (screening), Day 5, Day 12, Day 27, Day 40, Day 55 and in the case of disease recurrence or an unscheduled visit. A total of 596 faecal samples were collected during the study.
# C. difficile toxins A and B in human faecal samples were detected using TECHLAB C. difficile Tox A/B II ELISA kits (Product Number T5015).
# The assay readout is the spectrophotometric dual wavelength optical density (OD) read at 450 nm and referenced at 620 nm and expressed in Absorbance Units (AU). All samples were measured in duplicate. The presence (+) or absence (−) of toxin was reported together with the mean OD.
# The acceptability of each batch of test samples was dependent on the data from the QC samples fulfilling the acceptance criteria outlined below in Table 5, in that all positive QCs remain above the cut off value of >0.080 OD and negative QCs remain ≤0.080 OD. All batches contained 2 separate sets of QC samples which were measured in duplicate. The precision was calculated between the OD of replicates of each set using the coefficient of variation (CV) which should be <20%.
# CDI [2] = assay: Individual patient data for extended fidaxomicin treatment regimen; format: in vivo, human
# Source text: Individual Patient Data for Extended Fidaxomicin Treatment Regimen
# [3] = test system: Clostridium difficile infection; conditions: Louie 2011; 200 mg Fidaxomicin twice daily or vancomycin 125 mg four times daily orally for 10 days; cited from earlier work
# [4] = test system: Clostridium difficile infection; conditions: Cornely 2012; 200 mg Fidaxomicin twice daily or vancomycin 125 mg four times daily orally for 10 days; cited from earlier work
# CDI [5] = conditions: Phase III studies, mITT analysis; cited from earlier work
# [6] = test system: Clostridium difficile infections (CDI); conditions: cited from earlier work
# [7] = in vitro BCS study; low solubility, low permeability; cited from earlier work
# [8] = Sub-study visit day 5, n = 20 per arm
# [9] = Sub-study visit day 12, n = 20 per arm
# [10] = Sub-study visit day 27, n = 20 Fidaxomicin, 17 Vancomycin
# [11] = FID-CH: 10-day fidaxomicin chaser after repeat CDI treatment, 8 courses, excluding RCDI due to antimicrobial exposure
# [12] = FID-TX: 200 mg BID for 10 days, of 3 courses
smiles,measurement,setting,value
"CCc1c(Cl)c(O)c(Cl)c(O)c1C(=O)O[C@H]1[C@H](O)[C@H](OC)[C@H](OC/C2=C\C=C\C[C@H](O)/C(C)=C/[C@H](CC)[C@@H](O[C@@H]3OC(C)(C)[C@@H](OC(=O)C(C)C)[C@H](O)[C@@H]3O)/C(C)=C/C(C)=C/C[C@@H]([C@@H](C)O)OC2=O)O[C@@H]1C [fidaxomicin, 3-[[[6-deoxy-4-O-(3,5-dichloro-2-ethyl-4,6-dihydroxybenzoyl)-2-O-methyl-β-D-mannopyranosyl]oxy]methyl]-12(R)-[[6-deoxy-5-C-methyl-4-O-(2-methyl-1-oxopropyl)-β-D-lyxo-hexopyranosyl]oxy]-11 (S)-ethyl-8(S)-hydroxy-18(S)-(1(R)-hydroxyethyl)-9,13,15-trimethyloxacyclooctadeca-3,5,9,13,15-pentaene-2-one]","CDI toxin in faecal stool samples, Negative (%)",[1]; [8],(75%)
same,"CDI toxin in faecal stool samples, Negative (number of subjects)",[1]; [8],15
same,"CDI toxin in faecal stool samples, Positive (%)",[1]; [8],(25%)
same,"CDI toxin in faecal stool samples, Positive (number of subjects)",[1]; [8],5
same,"CDI toxin in faecal stool samples, Negative (%)",[1]; [9],(95.0%)
same,"CDI toxin in faecal stool samples, Negative (number of subjects)",[1]; [9],19
same,"CDI toxin in faecal stool samples, Positive (%)",[1]; [9],(5.0%)
same,"CDI toxin in faecal stool samples, Positive (number of subjects)",[1]; [9],1
same,"CDI toxin in faecal stool samples, Negative (%)",[1]; [10],(95.0%)
same,"CDI toxin in faecal stool samples, Negative (number of subjects)",[1]; [10],19
same,"CDI toxin in faecal stool samples, Positive (%)",[1]; [10],(5.0%)
same,"CDI toxin in faecal stool samples, Positive (number of subjects)",[1]; [10],1
same,Number of Unformed bowel movements per day,"CDI [2]; Patient 1 (ID: 3000510001), Day 1",4
same,Number of Unformed bowel movements per day,"CDI [2]; Patient 1 (ID: 3000510001), Day 2",2
same,Number of Unformed bowel movements per day,"CDI [2]; Patient 1 (ID: 3000510001), Day 3",1
same,Number of Unformed bowel movements per day,"CDI [2]; Patient 1 (ID: 3000510001), Day 4",0
same,Number of Unformed bowel movements per day,"CDI [2]; Patient 1 (ID: 3000510001), Day 5",0
same,Number of Unformed bowel movements per day,"CDI [2]; Patient 1 (ID: 3000510001), Day 6",2
same,Number of Unformed bowel movements per day,"CDI [2]; Patient 1 (ID: 3000510001), Day 7",0
same,Number of Unformed bowel movements per day,"CDI [2]; Patient 1 (ID: 3000510001), Day 8",0
same,Number of Unformed bowel movements per day,"CDI [2]; Patient 1 (ID: 3000510001), Day 9",0
same,Number of Unformed bowel movements per day,"CDI [2]; Patient 1 (ID: 3000510001), Day 10",0
same,Number of Unformed bowel movements per day,"CDI [2]; Patient 2 (ID: 3000710001), Day 1",7
same,Number of Unformed bowel movements per day,"CDI [2]; Patient 2 (ID: 3000710001), Day 2",7
same,Number of Unformed bowel movements per day,"CDI [2]; Patient 2 (ID: 3000710001), Day 3",2
same,Number of Unformed bowel movements per day,"CDI [2]; Patient 2 (ID: 3000710001), Day 4",1
same,Number of Unformed bowel movements per day,"CDI [2]; Patient 2 (ID: 3000710001), Day 5",1
same,Number of Unformed bowel movements per day,"CDI [2]; Patient 2 (ID: 3000710001), Day 6",2
same,Number of Unformed bowel movements per day,"CDI [2]; Patient 2 (ID: 3000710001), Day 7",1
same,Number of Unformed bowel movements per day,"CDI [2]; Patient 2 (ID: 3000710001), Day 8",1
same,Number of Unformed bowel movements per day,"CDI [2]; Patient 2 (ID: 3000710001), Day 9",1
same,Number of Unformed bowel movements per day,"CDI [2]; Patient 2 (ID: 3000710001), Day 10",0
same,Number of Unformed bowel movements per day,"CDI [2]; Patient 3 (ID: 3400310001), Day 1",8
same,Number of Unformed bowel movements per day,"CDI [2]; Patient 3 (ID: 3400310001), Day 2",0
same,Number of Unformed bowel movements per day,"CDI [2]; Patient 3 (ID: 3400310001), Day 3",0
same,Number of Unformed bowel movements per day,"CDI [2]; Patient 3 (ID: 3400310001), Day 4",0
same,Number of Unformed bowel movements per day,"CDI [2]; Patient 3 (ID: 3400310001), Day 5",0
same,Number of Unformed bowel movements per day,"CDI [2]; Patient 3 (ID: 3400310001), Day 6",0
same,Number of Unformed bowel movements per day,"CDI [2]; Patient 3 (ID: 3400310001), Day 7",0
same,Number of Unformed bowel movements per day,"CDI [2]; Patient 3 (ID: 3400310001), Day 8",0
same,Number of Unformed bowel movements per day,"CDI [2]; Patient 3 (ID: 3400310001), Day 9",0
same,Number of Unformed bowel movements per day,"CDI [2]; Patient 3 (ID: 3400310001), Day 10",0
same,Number of Unformed bowel movements per day,"CDI [2]; Patient 4 (ID: 3580210001), Day 1",9
same,Number of Unformed bowel movements per day,"CDI [2]; Patient 4 (ID: 3580210001), Day 2",9
same,Number of Unformed bowel movements per day,"CDI [2]; Patient 4 (ID: 3580210001), Day 3",5
same,Number of Unformed bowel movements per day,"CDI [2]; Patient 4 (ID: 3580210001), Day 4",3
same,Number of Unformed bowel movements per day,"CDI [2]; Patient 4 (ID: 3580210001), Day 5",2
same,Number of Unformed bowel movements per day,"CDI [2]; Patient 4 (ID: 3580210001), Day 6",3
same,Number of Unformed bowel movements per day,"CDI [2]; Patient 4 (ID: 3580210001), Day 7",3
same,Number of Unformed bowel movements per day,"CDI [2]; Patient 4 (ID: 3580210001), Day 8",1
same,Number of Unformed bowel movements per day,"CDI [2]; Patient 4 (ID: 3580210001), Day 9",1
same,Number of Unformed bowel movements per day,"CDI [2]; Patient 4 (ID: 3580210001), Day 10",2
same,Recurrence 30 days after end of treatment (%),[3],15.4%
same,Recurrence 30 days after end of treatment (patients/N),[3],39/253
same,Sustained clinical cure 30 days after end of treatment (%),[3],74.6%
same,Sustained clinical cure 30 days after end of treatment (patients/N),[3],214/287
same,Recurrence 30 days after end of treatment (%),[4],12.7%
same,Recurrence 30 days after end of treatment (patients/N),[4],28/221
same,Sustained clinical cure 30 days after end of treatment (%),[4],76.6%
same,Sustained clinical cure 30 days after end of treatment (patients/N),[4],193/252
same,Recurrence of CDI,CDI [5],14.1%
same,Courses resulting in treatment success,[6]; 18 courses of fidaxomicin in 14 patients with RCDI,18
same,RCDI,[6]; [11],2
same,RCDI (%),[6]; [11],25%
same,RCDI,"[6]; FID-TP: taper 200 mg daily 7 days then 200 mg QOD 7-26 days, 7 courses",no RCDI
same,RCDI episodes,[6]; [12],2
same,RCDI episodes (%),[6]; [12],66%
same,Average symptom-free interval (SFI),[6]; following FID-CH,240 days
same,Average symptom-free interval (SFI),[6]; following FID-TP,150 days
same,Average symptom-free interval (SFI),[6]; following FID-TX,73 days
same,BCS class,[7],Class IV

# Source: patent publication US10548912B2, “Dosage regimen for a tiacumicin compound” (Astellas Pharma Europe Ltd., priority 2015, dated 2020)
